According to patent US20200325483A1, “SAFE DELIVERY OF CRISPR AND OTHER GENE THERAPIES TO LARGE FRACTIONS OF SOMATIC CELLS IN HUMANS AND ANIMALS” (priority 2016, published 2020):
Read-outs that look alike come from different tables or passages of the source. Ends that are not written are not given here.

Assays:
[1] = system: TNFα; conditions: cited from earlier work
[2] = system: Rodents; conditions: cited from earlier work
[3] = system: Dogs; conditions: cited from earlier work
[4] = system: sepsis; conditions: in vivo; cited from earlier work
[5] = system: mice; conditions: cited from earlier work
[6] = system: mice; assay: LPS LD50 in mouse model; type: in vivo
Description: In mouse model the LD50 of LPS depends on liver protein synthesis. […] However, in mice pretreated with β-galactosamine to inhibit liver protein synthesis, the mouse LD50 is approximately 5 nanograms (200 ng/kg), 30,000 times less. By comparison, normal humans show reactions at 2-4 nanograms of LPS per kilogram. The human LD50 for LPS is below 5 micrograms per kilogram, three orders of magnitude lower than mice. Humans are […] larger yet die at doses only double the dose that kills a 25-gram mouse. […] Human LPS sensitivity is believed to be due to mutations in sialic acid binding Ig-like lectins (siglecs). Phenotypically, knockouts of siglecs produce hyper-reactive immune system components. The missing siglec-13 and inactivated siglec-17 that are active in other primates affects control over TLR4. TLR4 is the receptor for LPS. It is also the target for HMGB1, in DAMP signaling.

[7] = system: humans; conditions: cited from earlier work
[8] = system: sepsis; conditions: animal studies, as long as there is not an underlying infection; cited from earlier work

COc1cc(CC(C)N)c(OC)cc1I (stereo not shown) [DOI, 2,5-Dimethoxy-4-iodoamphetamine]
TNFα inhibition (in words) [1]: strongest TNFα inhibitor known

Polymyxin B sulfate
tolerated dose [2]: ≥ 100 mg/kg
dose at which animals begin dying [3]: 8 mg/kg

ghrelin: Ghrelin, injected to rescue from sepsis (GSSFLSPEHQRVQQRKESKKPPAKLQPR; ends and bridges not checked; UniProt Q9UBU3 24-51, looked up)
rescue from sepsis (in words) [4]: rescue from sepsis with remarkable effect

lipopolysaccharide [LPS]
LPS LD50 ([5]; mice pretreated with β-galactosamine to inhibit liver protein synthesis, per animal): approximately 5 nanograms
LPS LD50 ([5]; normal 25 gram mice, per animal): approximately 150 micrograms
LPS LD50 ([5]; normal 25 gram mice): ~6 mg/kg
time for LD50 dose to complete its course ([5]; normal 25 gram mice): 35 h
fold lower LD50 in β-galactosamine pretreated vs normal mice [6]: 30,000 times
LPS LD50 ([7]; average adult human, per person): 300 micrograms
LPS LD50 ([7]; human): below 5 micrograms per kilogram
LPS dose at which reactions are shown ([7]; normal humans): 2-4 nanograms of LPS per kilogram

B1: IL-10: IL-10, injected to temper sepsis (protein, UniProt P22301 19-178, looked up)
Interleukin-10: SPGQGTQSENSCTHFPGNLPNMLRDLRDAFSRVKTFFQMKDQLDNLLLKESLLEDFKGYLGCQALSEMIQFYLEEVMPQAENQDPDIKAHVNSLGENLKTLRLRLRRCHRFLPCENKSKAVEQVKNAFNKLQEKGIYKAMSEFDIFINYIEAYMTMKIRN
effect on sepsis (in words) [8]: effective in animal studies at tempering sepsis
